Measurements from the supplement of paper PMC10307832.

How the values were obtained:
Assay in all cases: relative viability (nuclei count vs DMSO), 5 days (fraction); higher = more cells survive
ALW-II-49-7 + Crizotinib = compound: Cc1ccc(C(=O)Nc2cccc(C(F)(F)F)c2)cc1Nc1cncc(C(N)=O)c1 [ALW-II-49-7] + C[C@@H](Oc1cc(-c2cnn(C3CCNCC3)c2)cnc1N)c1c(Cl)ccc(F)c1Cl [Crizotinib] (partner 1 µM)
Summary of the method: (§1)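 Values are medians from duplicate plates. Each reflects relative viability, defined as the nuclei count of treated wells over that of vehicle wells. Lung cancer cell lines in 1536-well plates were pin-tool dosed one day after seeding with one drug alone or with a fixed anchor-drug dose plus five library-drug doses (not always all listed) in √10 steps, then fixed, stained and imaged at 4× after 5 days.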

XMD13-2 + Luminespib = compound: C1CC1C(=O)NC2=NNC3=C2C=CC(=C3)C4=CC(=CC=C4)C(=O)NC5CC5 [XMD13-2] + CCNC(=O)c1noc(-c2cc(C(C)C)c(O)cc2O)c1-c1ccc(CN2CCOCC2)cc1 [Luminespib] (partner 0.01 µM)
Summary of the method: as §1

ALW-II-49-7 + Foretinib = compound: Cc1ccc(C(=O)Nc2cccc(C(F)(F)F)c2)cc1Nc1cncc(C(N)=O)c1 [ALW-II-49-7] + COc1cc2c(Oc3ccc(NC(=O)C4(C(=O)Nc5ccc(F)cc5)CC4)cc3F)ccnc2cc1OCCCN1CCOCC1 [Foretinib] (partner 0.25 µM)
Summary of the method: as §1

| Cell Line | relative viability (ALW-II-49-7 + Crizotinib; first compound 0.08 µM) | relative viability (ALW-II-49-7 + Crizotinib; first compound 0.253 µM) | relative viability (ALW-II-49-7 + Crizotinib; first compound 0.8 µM) | relative viability (ALW-II-49-7 + Crizotinib; first compound 2.53 µM) | relative viability (ALW-II-49-7 + Crizotinib; first compound 8 µM) | relative viability (XMD13-2 + Luminespib; first compound 0.05 µM) | relative viability (XMD13-2 + Luminespib; first compound 0.1581 µM) | relative viability (XMD13-2 + Luminespib; first compound 0.5 µM) | relative viability (XMD13-2 + Luminespib; first compound 1.581 µM) | relative viability (XMD13-2 + Luminespib; first compound 5 µM) | relative viability (ALW-II-49-7 + Foretinib; first compound 0.08 µM) | relative viability (ALW-II-49-7 + Foretinib; first compound 0.253 µM) | relative viability (ALW-II-49-7 + Foretinib; first compound 0.8 µM) | relative viability (ALW-II-49-7 + Foretinib; first compound 2.53 µM) | relative viability (ALW-II-49-7 + Foretinib; first compound 8 µM) |
| --- | --- | --- | --- | --- | --- | --- | --- | --- | --- | --- | --- | --- | --- | --- | --- |
| EMC-BAC-2 | 0.677 | 0.728 | 0.737 | 0.588 | 0.509 | 1.36 | 1.1 | 1.05 | 1.14 | 1.04 | 0.968 | 1.04 | 0.989 | 0.885 | 0.878 |
| EPLC-272H | 0.869 | 0.754 | 0.85 | 1.15 | 1 | 0.414 | 0.125 | 0.734 | 0.199 | 0.124 | 0.665 | – | 0.712 | 0.643 | 0.917 |
| H3255 | 0.945 | 0.993 | 0.81 | 0.696 | 0.564 | 0.859 | 0.947 | 0.859 | 0.62 | 0.955 | 1.01 | 0.827 | 0.939 | 1.02 | 0.703 |
| HARA | 0.914 | 0.982 | 1.01 | 1.25 | 1.23 | 0.995 | 0.654 | 0.779 | 0.772 | 0.707 | 0.646 | 0.836 | 1.03 | 0.887 | 1.04 |
| HCC-15 | 0.805 | 0.86 | 0.786 | 0.831 | 0.886 | 0.379 | 0.492 | 0.479 | 0.238 | 0.192 | 1.08 | 1.1 | 1.03 | 0.96 | 1 |
| HCC-44 | 0.902 | 0.773 | 0.729 | 0.823 | 0.782 | 1.28 | 1.12 | 1.17 | 1.06 | 1.03 | – | – | – | – | – |
| HCC-78 | 0.335 | 0.321 | 0.32 | 0.297 | 0.371 | – | – | – | – | – | 0.524 | 0.487 | – | 0.528 | 0.586 |
| HCC-366 | 0.777 | 0.592 | 0.382 | 0.682 | 0.609 | – | – | – | – | – | 1 | 1.02 | 0.941 | 1 | 1.08 |
| HCC-827 | 0.898 | 0.913 | 0.886 | 0.941 | 0.906 | 0.809 | 0.424 | 0.725 | 0.576 | 0.661 | 1.02 | 1.13 | 1.07 | 0.954 | 1.02 |
| HOP-62 | 0.855 | 1.05 | 1.02 | 0.563 | 0.817 | 1 | 0.878 | 0.925 | 0.881 | 0.938 | 1.22 | 1.14 | 1.17 | 0.935 | 0.837 |
| IA-LM | 0.825 | 0.754 | 0.745 | 0.346 | 0.18 | – | – | – | – | – | 1.06 | 0.999 | 1.28 | 1.02 | 0.416 |
| LC-2-ad | 0.354 | 0.461 | 0.476 | 0.378 | 0.393 | 1.16 | 1.06 | 0.973 | 0.992 | 0.952 | 0.863 | 0.881 | 0.929 | 0.559 | 0.905 |
